Article PMC10786919, “Design-rules for stapled peptides with in vivo activity and their application to Mdm2/X antagonists” (Nature Communications, 2024)
pEC50, pKd: −log10 of the molar value. Converted amounts (≈) assume the structure as drawn. Read-outs that look alike come from different tables or passages of the source. Positions of bridges follow the written chain, without caps; N, C: chain ends. Non-standard residues stand in square brackets, D forms with d. Residues, ends and D or L forms follow the SMILES beside them. R8 = C=CCCCCCC[C@@](C)(N)C(=O)O; S5 = C=CCCC[C@](C)(N)C(=O)O

Columns and labels:
[1] = test system: Jump-In T-REx CHO-K1 BLA cells; assay: cells; format: cell-based; conditions: for TETCHO Counterscreen % Effect: efficacy at 50 μM relative to tetracycline control
[2] = Nanoclick permeability assay
Outline: (§1)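 Azido-peptide permeability was read as loss of NanoBRET signal (donor 450 nm, acceptor 610 nm) after adding NanoBret618-azide at 10 μM final.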

[3] = test system: cells transiently transfected with the NanoLuc-HaloTag vector; assay: Nanoclick permeability assay; conditions: 4Hr
Outline: as §1

[4] = Circular dichroism (CD) helicity; format: physicochemical
Experimental: A total of 5 µL of the 10 mM stock peptide was mixed with 45 µL of 100% methanol, and dried for 2 h in the SpeedVac concentrator (Thermo Scientific). The dried peptide was reconstituted in a buffer (1 mM Hepes pH 7.4 and 5% methanol) to a concentration of 1 mM. The peptide sample was placed in a quartz cuvette with a path length of 0.2 cm. The peptide concentration was determined by the absorbance of the peptide at […]. The CD spectrum was recorded from 300 to 190 nm using the Chirascan-plus qCD machine (Applied Photophysics, Surrey, UK), at 25 °C. All experiments were done in duplicates. The CD spectrum was converted to mean residue ellipticity before deconvolution and estimation of the secondary structure components of the peptide using the CDNN software (distributed by Applied Photophysics). Measurements were taken at least twice and were reported as arithmetic means.

[5] = test system: p53 responsive β-lactamase reporter in HCT116 cells; assay: cells; format: cell-based
Outline: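 Read-out used the ToxBLAzer Dual Screen for β-lactamase driven by a stably integrated p53-responsive reporter. Assay: 8000 HCT116 cells per well at 0.5% final DMSO. Reported numbers are geometric means over a minimum of three biological replicates.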

[6] = Lactate dehydrogenase (LDH) release assay; format: cell-based
Outline: (§2)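 HCT116 cells stably carrying a p53-responsive β-lactamase reporter were seeded at 8000 cells per well with a final DMSO level of 0.5%. Membrane integrity was assessed by lactate dehydrogenase release using a homogeneous fluorometric kit. Values are geometric means of at least three biological replicates.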

[7] = test system: HCT116 cells; assay: Lactate dehydrogenase (LDH) release assay; format: cell-based
Outline: as §2

[8] = Experimental LogD (partition coefficient); conditions: for logD: not stated, Partition Coeff LogD
[9] = Solubility assay (kinetic solubility, PBS pH 7); format: physicochemical; conditions: for solubility kinetic: pH 7, aqueous buffer, kinetic from dmso stock, read-out: Solubility
Outline: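 Quantitation uses an external standard at 100 µM, prepared from 10 mM stock in acetonitrile:methanol:DMSO (10:80:10). Solubility (µM) = (peak area of sample ÷ peak area of standard) × standard concentration.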

[10] = physchem
[11] = molecular target: T1, human Mdm2 1–125 (Homo sapiens, UniProt Q00987); assay: Mdm2 binding by competitive fluorescence anisotropy assay (FP binding); conditions: read-out: FP binding assay KD
T1 construct: GST (N); His6 (internal); TEV cleavage site (ENLYFQG) (internal); made in house; host or cells: BL21 (DE3) Rosetta T1R Escherichia coli
T1 sequence (Q00987 with tags, fused parts or gaps): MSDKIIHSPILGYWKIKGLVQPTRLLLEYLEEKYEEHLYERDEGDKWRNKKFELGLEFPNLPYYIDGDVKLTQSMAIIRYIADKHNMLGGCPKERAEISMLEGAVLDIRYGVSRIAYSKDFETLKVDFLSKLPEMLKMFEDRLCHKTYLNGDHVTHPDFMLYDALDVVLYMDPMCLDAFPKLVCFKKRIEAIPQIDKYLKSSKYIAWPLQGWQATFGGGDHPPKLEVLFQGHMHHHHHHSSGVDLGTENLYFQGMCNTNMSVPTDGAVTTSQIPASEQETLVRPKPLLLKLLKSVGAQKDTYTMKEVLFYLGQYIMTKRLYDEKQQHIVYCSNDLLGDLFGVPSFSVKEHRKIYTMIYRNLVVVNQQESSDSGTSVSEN

[12] = test system: Ca Ski cell line; conditions: read-out: Cell Proliferation assay EC50; p53 Mut, Ca-Ski
Outline: (§3)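 Compound dilution series (10 points, 3-fold, 10 mM top stock in DMSO) tested on overnight-plated Ca Ski cells in RPMI1640/10% FBS and on blasticidin-selected p53RE-bla HCT-116 cells in McCoy's 5A; read-out was CellTiter-Glo 2.0 luminescence after room-temperature equilibration.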

[13] = test system: CellSensor p53RE-bla HCT-116 Cell Line; conditions: read-out: Cell Proliferation assay EC50; p53 WT, HCT116
Outline: as §3

[14] = 0% FBS 4Hr, read-out: TETCHO: Counterscreen EC50
[15] = 10% FBS 16Hr, read-out: TETCHO: Counterscreen EC50
[16] = read-out: Cell EC50 (4 hr, 0% FBS), p53 reporter assay, 4 hr, 0% FBS
[17] = read-out: Cell EC50 (16 hr, 10% FBS), p53 reporter assay, 16 hr, 10% FBS
[18] = 0% FBS 4Hr, read-out: p53 reporter assay: EC50
[19] = 4 hours, 0% serum, read-out: TETCHO Counterscreen EC50
[20] = 0% FBS 16Hr, read-out: p53 reporter assay: EC50
[21] = 0% FBS 4Hr, read-out: LDH: Cytotoxicity assay: EC50

Row | SMILES | TETCHO: Counterscreen % Effect ([1]; 0% FBS 4Hr) | pEC50 [1, 14] | TETCHO: Counterscreen % Effect ([1]; 10% FBS 16Hr) | pEC50 [1, 15] | CD % Helicity [4] | pEC50 [5, 16] | pEC50 [5, 17] | TETCHO: Counterscreen % Effect ([1]; 0% FBS 16Hr) | pEC50 [5, 18] | pEC50 ([6]; LDH: Cytotoxicity assay: EC50) | LDH: Cytotoxicity assay: % Effect [7] | logD [8] | EPSA [10] | solubility kinetic ([9]; pH 7, PBS) | pKd [11] | TETCHO Counterscreen % Effect ([1]; 4 hours, 0% serum) | pEC50 [1, 19] | pEC50 [5, 20] | pEC50 [6, 21] | LDH: Cytotoxicity assay: % Effect ([7]; 0% FBS 4Hr) | also measured
1 | CC(=O)N[C@@H](CC(C)C)C(=O)N[C@H](C(=O)N[C@@H](Cc1ccccc1)C(=O)N[C@]1(C)CCCCCCC=CCCC[C@@](C)(C(=O)N[C@@H](C)C(=O)N[C@@H](C)C(=O)N[C@@H](C)C(=O)N[C@@H](C)C(=O)N[C@@H](C)C(=O)N[C@H](C)C(N)=O)NC(=O)[C@H](CC(C)C)NC(=O)[C@H](CCC(N)=O)NC(=O)[C@H](C)NC(=O)[C@H](Cc2c[nH]c3ccccc23)NC(=O)[C@H](Cc2ccc(O)cc2)NC(=O)[C@H](CCC(=O)O)NC1=O)[C@@H](C)O [ALRN-6924, Ac-LTF(R8)EYWAQL(S5)AAAAA(dA)-NH2, reference compound] (Ac-LTF[R8]EYWAQL[S5]AAAAA[dA]-NH2; staple 4-11) | 4.454% | < 4.30 | -11.62% | < 4.30 | 51.25% | 6.85 | 6.49 | – | – | – | – | – | – | – | – | – | – | – | – | – | cell entry EC50 [2]: > 10 µM; Nanoclick permeability assay % Effect [3]: 33.65%; Aqueous solution helicity ([4]; circular dichroism): 51.25%; p53 reporter assay % Effect ([5]; 0% FBS 4Hr): 95.6%; pEC50 ([5]; 0% FBS 4Hr, read-out: p53 reporter assay EC50): 6.85; p53 reporter assay % Effect ([5]; 10% FBS 16Hr): 77.82%; pEC50 ([5]; 10% FBS 16Hr, read-out: p53 reporter assay EC50): 6.49; pEC50 ([6]; 0% FBS 4Hr, read-out: LDH: Cytotoxicity assay EC50): < 4.29; pEC50 ([6]; 10% FBS 16Hr, read-out: LDH: Cytotoxicity assay EC50): < 4.29; LDH: Cytotoxicity assay % Effect ([7]; 0% FBS 4Hr): 0.8526%; LDH: Cytotoxicity assay % Effect ([7]; 10% FBS 16Hr): 8.856%; Partition Coeff LogD [8]: Poorly Behaved; Solubility [9]: P.B.; Solubility ([9]; pH 7, PBS): Poorly Behaved
2 | CC(=O)N[C@H](C(=O)N[C@@H](CO)C(=O)NC(C)(Cc1ccccc1)C(=O)N[C@]1(C)CCCCCCC=CCCC[C@@](C)(C(N)=O)NC(=O)[C@H](CC(C)C)NC(=O)[C@H](CC(C)C)NC(=O)[C@H](C)NC(=O)[C@H](Cc2c[nH]c3ccccc23)NC(=O)[C@H](Cc2ccc(O)cc2)NC(=O)[C@H](CCC(=O)O)NC1=O)[C@@H](C)O (stereo partly shown) [MP-159] | 165.5% | 4.52 | – | – | 40.4% | – | – | 55.93% | 4.43 | 4.67 | 47.15% | 2.75 | 210 A^2 | 85.5 µM (≈ 126 µg/mL) | 6.28 | – | – | – | – | – | –
3 | CC(=O)N[C@@H](CCCCN=[N+]=[N-])C(=O)NCCC(=O)N[C@@H](CC(C)C)C(=O)N[C@H](C(=O)N[C@@H](Cc1ccccc1)C(=O)N[C@]1(C)CCCCCCC=CCCC[C@@](C)(C(=O)N[C@@H](CO)C(=O)N[C@@H](C)C(=O)N[C@@H](C)C(N)=O)NC(=O)[C@H](CC2CCC2)NC(=O)[C@H](CCC(N)=O)NC(=O)[C@H](Cc2c[nH]cn2)NC(=O)[C@H](Cc2c[nH]c3ccccc23)NC(=O)[C@H](Cc2ccc(O)cc2)NC(=O)[C@H](CCC(=O)O)NC1=O)[C@@H](C)O [MP-496, AZIDE-ATSP-7041 (A8H)] | 34.53% | 5.55 | – | – | 32.75% | – | – | – | 5.79 | – | – | 2.63 | 214 A^2 | 20 µM (≈ 40.7 µg/mL) | – | 34.53% | 5.55 | 5.78 | < 4.30 | 33.4% | off-target effects (LDH release and/or counterscreen activity) ([1]; Supplementary Table 1, 0% serum, 4 hours): none; pEC50 [12]: < 4.30; pEC50 [13]: 5.81
4 | CC(=O)N[C@@H](CC(C)C)C(=O)N[C@H](C(=O)N[C@@H](Cc1ccccc1)C(=O)N[C@]1(C)CCCCCCC=CCCC[C@@](C)(C(=O)N[C@@H](CO)C(=O)N[C@@H](C)C(=O)N[C@@H](C)C(N)=O)NC(=O)[C@H](CC2CCC2)NC(=O)[C@H](Cc2c[nH]cn2)NC(=O)[C@H](C)NC(=O)[C@H](Cc2c[nH]c3ccccc23)NC(=O)[C@H](Cc2ccc(O)cc2)NC(=O)[C@H](CCC(=O)O)NC1=O)[C@@H](C)O [MP-501, ATSP-7041 (Q8H)] | 216% | 4.72 | – | – | 29.1% | – | – | – | 5.60 | – | – | – | – | – | – | 216% | 4.72 | 4.54 | < 4.30 | 4.045% | –
5 | CC(=O)N[C@@H](CCCCN=[N+]=[N-])C(=O)NCCC(=O)N[C@@H](CC(C)C)C(=O)N[C@H](C(=O)N[C@@H](Cc1ccccc1)C(=O)N[C@]1(C)CCCCCCn2cc(nn2)CCC[C@@](C)(C(=O)N[C@@H](CO)C(=O)N[C@@H](C)C(=O)N[C@@H](C)C(N)=O)NC(=O)[C@H](CC2CCC2)NC(=O)[C@H](CCC(N)=O)NC(=O)[C@H](C)NC(=O)[C@H](Cc2c[nH]c3ccccc23)NC(=O)[C@H](Cc2ccc(O)cc2)NC(=O)[C@H](CCC(=O)O)NC1=O)[C@@H](C)O [MP-707] | -1.105% | < 4.30 | -2.89% | < 4.30 | 33.95% | 5.80 | 4.87 | – | 5.80 | – | – | – | – | – | – | – | – | – | < 4.29 | -2.492% | p53 reporter assay: % Effect ([5]; 0% FBS 4Hr): 101.9%; p53 reporter assay: % Effect ([5]; 10% FBS 16Hr): 63.44%; pEC50 ([5]; 10% FBS 16Hr, read-out: p53 reporter assay: EC50): 4.87; pEC50 ([6]; 10% FBS 16Hr, read-out: LDH: Cytotoxicity assay: EC50): < 4.29; LDH: Cytotoxicity assay: % Effect ([7]; 10% FBS 16Hr): 13.49%
6 | CC(=O)N[C@H](C(=O)N[C@@H](CO)C(=O)NC(C)(Cc1ccccc1)C(=O)N[C@@H]1CCCCCCC=CCCC[C@@H](C(N)=O)NC(=O)C(C)(CC(C)C)NC(=O)[C@H](CC(C)C)NC(=O)[C@H](C)NC(=O)[C@H](Cc2c[nH]c3ccccc23)NC(=O)[C@H](Cc2ccc(O)cc2)NC(=O)[C@H](CCC(=O)O)NC1=O)[C@@H](C)O (stereo partly shown) [MP-792] | 20.04% | 4.31 | – | – | 25.3% | – | – | -1.02% | 4.91 | < 4.30 | 10.77% | – | – | – | 6.70 | – | – | – | – | – | –
